Test results from patent publication US6911460B2, “Antiviral agents and methods of treating viral infections” (Vion Pharmaceuticals, Inc., priority 2001, dated 2005).

Key:
HSV-1 (KOS) = experiment: Virus yield assay, Triapine plus acyclovir against HSV-1; format: cell-based, herpes simplex virus; settings: for EC90: virus yield assay, 48 hr, combinations: ACV with fixed Triapine concentration
Procedure: (§1) To evaluate the antiviral activities of Triapine, acyclovir, and combination thereof, HeLa S3 cells are seeded in 25-cm^2 flasks and are used as host cells for virus infection (laboratory strains of virus HSV-1, HSV-2, wild type (Darby et al., (1982) Nature, 289, 81-3; Cheng, et al., Antimicrob. Agents Chemother. 18, 957-61, 1980). After a 1-hr adsorption period with virus at 5-10 plaque-forming units per cell, the monolayers are rinsed with phosphate-buffered saline, followed by the addition of 5 ml of growth medium containing various concentrations of drug. Concentrations of Triapine tested range from 0.1 to 1.0 micromolar where concentrations of acyclovir are from 1-50 micromolar. The cells are incubated at 37° C. for 48 hr and then are stored frozen at −70° C. until titration. The amounts of HSV contained in cells are determined with Vero cells using the methods described by Cheng et al. (Cheng, et al., Antimicrob. Agents Chemother. 18, 957-61, 1980).
(§2) The results of the above-test are presented in the following Table 1, below, which presents the antiviral activity of Triapine, at low, non-toxic clinically achievable concentrations of 0.3, 0.6 and 1.0 μM, in combination with acyclovir against HSV-1 (KOS) and HSV-2 (333) strains of herpes simplex virus in a virus yield assay. […] A greater than 4-fold decrease in the EC90 of ACV against HSV-2 is observed with 0.6 μM Triapine.

HSV-2 (333) = experiment: Virus yield assay, Triapine plus acyclovir against HSV-2; format: cell-based, herpes simplex virus; settings: for EC90: virus yield assay, 48 hr, combinations: ACV with fixed Triapine concentration
Procedure: as §1, §2

[1] = tested on: acyclovir-resistant HSV strains; settings: in combination with acyclovir; cited from earlier work
strain IIIB of HIV = experiment: Anti-HIV activity of Triapine combinations in HIV-infected MT-2 cells (MTT, isobolograms); format: cell-based, HIV-1; settings: FIG. 4
Procedure: MT-2 cells infected with strain IIIB of HIV (wildtype, 3TC resistant, or AZT resistant) are used for determining antiviral activities (Bridges et al., Biochem. Pharmacol. Vol. 51, 731-36, 1996). Cells are infected with virus at a multiplicity of infection of 0.1 TCID50/ml and added to wells containing serial 2-fold dilutions of drugs. MT-2 cells in RPMI 1640 medium supplemented with 10% dialyzed fetal bovine serum and 100 μg/mL Kanamnycin are infected with virus and immediately added to serial dilutions of the drugs. After 5 days, 20 μL of MTT dye (2.5 mg/mL in PBS) is added per well. At the end of the 4-h incubation period, 150 μL of acidified 2-propanol with 2% NP-40 nonionic detergent is added per well. After the crystals of dye are dissolved (usually 1-2 days), the plates are read on a microplate reader. Using this MTT-dye reduction method (Larder et al., (1990), Antimicrob. Agents Chemother. 34, 436-41), the percentage of protection can be calculated from the formula [(a−b)/(c−b)×100] in which a is the A595 of drug-treated virus-infected wells, b is the A595 of no-drug infected cells, and c is the A595 of the no-drug uninfected cells. The EC50 was calculated from linear log 10 plots of the percentage protection verses inhibition concentration.
Using the above-described experimental system, the ability of Triapine to potentiate the anti-HIV activity of the dideoxynucleoside analogs ddI (2′,3′-dideoxyinosine), D4T (2′,3′-dideoxydidehydrothymidine) and AZT (3′-azidothymidine) was examined in HIV-infected MT-2 cells (as described above).

[2] = parameters: dose or concentration left out as unconfirmed; settings: cancer patients, 96-hour infusion; cited from earlier work
[3] = Solubility in aqueous solution
HIV-infected cells = settings: combined with 2′,3′-dideoxyinosine (DDI); cited from earlier work

Nc1nc2c(ncn2COCCO)c(=O)[nH]1 [ACV, acyclovir]
decrease of the EC90 of ACV (HSV-1 (KOS); HSV-1, in the presence of 0.3 μM Triapine): 10 fold | decrease of the EC90 of ACV (HSV-1 (KOS); HSV-1, in the presence of 0.6 μM Triapine): greater than 24 fold | EC90 (HSV-1 (KOS); Human alphaherpesvirus 1): 29.3 µM | decrease in the EC90 of ACV (HSV-2 (333); HSV-2, with 0.6 μM Triapine): greater than 4 fold | EC90 (HSV-2 (333); Human alphaherpesvirus 2): 36.5 µM

CC[C@@H](NC(=O)[C@@H](CC(=O)[C@@H](CC(=O)[C@@H](NC(=O)[C@H](C(C)C)N(C)C(=O)[C@H](C)CC1CCCCC1)C(C)(C)C)CC(=O)C(C)(C)C)C1(C(=O)O)CCCC1)C(C)(C)C [BILD1633 SE]
activity against acyclovir-resistant HSV strains [1]: had activity

NC(=S)NN=Cc1ncccc1N [Triapine, 3-aminopyridine-2-carboxyaldehyde thiosemicarbazone]
EC90 (HSV-1 (KOS)): > 1 µM | EC90 (HSV-2 (333)): > 1 µM | anti-HIV interaction (isobologram) (strain IIIB of HIV; combined with AZT): additive | anti-HIV interaction (isobologram) (strain IIIB of HIV; combined with D4T): synergistic | anti-HIV interaction (isobologram) (strain IIIB of HIV; combined with ddI): synergistic | concentration of Triapine reached [2]: 1000 nM | solubility in aqueous solution [3]: less than 0.1 mg/ml

NC(=O)NO [hydroxyurea]
effects against HIV-infected cells in combination (HIV-infected cells): synergistic effects
